Laboratory results from patent publication US11617777B2, “Cytotoxic and anti-mitotic compounds, and methods of using the same” (ZYMEWORKS BC INC., priority 2013, dated 2023).

Each compound was assayed on Jurkat cells (assay: Cytotoxicity of compounds, CellTiter-Glo). Details: Homo sapiens, Jurkat, Table 3; Cytotoxicity of Compounds on Jurkat Cells; read-out: EC50.
Type: cell-based, Human
Source text: Cell lines used: Human T-cell leukemia cell line Jurkat (ATCC: TIB-152); HCC1954 (ATCC: CRL. 2338); Human Pancreatic cells lines: AsPC-1 (ATCC: CRL-1682), BxPC-3 (ATCC: CRL.1687), HPAF-II (ATCC: CRL.1997), MiaPaCa2 (ATCC: CRL.1420), PANC-1 (ATCC: CRL.1469), Capan-1 (ATCC: HTB-79), Capan-2 (ATCC: HTB-80) and the Human gastric carcinoma cell line NCI-N87 (ATCC: CRL. 5822); AML-193 (ATCC: CRL.9589), CCRF-CEM (ATCC: CCL-119), DU145 (ATCC: HTB-81), PC-3 (ATCC: CRL.1435), A-431 (ATCC: CRL.1555), HT-29 (ATCC: HTB-38), A-172 (ATCC: CRL.1620), NCI-H358 (ATCC: CRL.5807), A549 (ATCC: CCL-185), Colo-205 (ATCC: CCL-222), MDA-MB-231 (ATCC: HTB-26), OVCAR-3 (ATCC: HTB-161), OV-90 (ATCC: CRL.11732), OE19 (Sigma: 96071721), RT 112/84 (Sigma: 85061106).
On the day prior to adding compounds, HCC1954 AsPC-1, BxPC-3, HPAF-II, MiaPaCa2, PANC-1, Capan-1, Capan-2 and NCI-N87 cells were added to opaque-walled 96-well tissue culture-treated microtiter plates using complete growth medium at a density of 2500 cells/100 microlitre (uL) of medium. These adherant cell lines cells were incubated for one night at 37° C./5% CO2 to allow the cells to attach to the microtiter plate surface. On the day that compounds were added, Jurkat cells are added to separate 96-well microtiter plates at 2500 cells/100 uL using the same growth medium as HCC1954. Compound were first serially diluted using dimethyl sulfoxide, and then the prepared dilutions are added to complete growth medium at five-times the final concentration—compounds were then titrated 1:3, eight steps. A control with no compound (growth medium alone) was included on each microtiter plate in sextuplicate. The prepared compounds titrations were added (twenty-five uL/well) in triplicate. The cells and compound titrations were incubated at 37° C./5% CO2 for three nights. After the incubation, cell viability is measured using CellTiter-Glo® reagent by adding thirty uL of prepared CellTiter-Glo® to each assay well. The assay is incubated for at least twenty minutes in the dark prior to measuring emitted luminescence using a microplate luminometer (500 ms integration time). The collected relative luminescence units (RLU) are converted to % cytotoxicity using the Growth medium alone control mentioned above (% Cytotoxicity=1−[Well RLU/average medium alone control RLU]).
GraphPad Prism was used for generation of EC50 values using three parameter non-linear regression curve fitting.

Row | SMILES | EC50 [nM]
1 | CN[C@H](C(=O)N[C@H](C(=O)N(C)[C@H](/C=C(\C)C(=O)NS(=O)(=O)Cc1cccnc1)C(C)C)C(C)(C)C)C(C)(C)c1ccccc1 [Compound 45, (S,E)-2,5-dimethyl-N-(pyridin-3-ylmethylsulfonyl)-4-((S)—N,3,3-trimethyl-2-((S)-3-methyl-2-(methylamino)-3-phenylbutanamido)butanamido)hex-2-enamide] | 0.869
2 | CN[C@H](C(=O)N[C@H](C(=O)N(C)[C@H](/C=C(\C)C(=O)NS(=O)(=O)c1c(C)cc(C)cc1C)C(C)C)C(C)(C)C)C(C)(C)c1ccccc1 [Compound 12, (S,E)-N-(mesitylsulfonyl)-2,5-dimethyl-4-((S)—N,3,3-trimethyl-2-((S)-3-methyl-2-(methylamino)-3-phenylbutanamido)butanamido)hex-2-enamide] | 0.03
3 | CN[C@H](C(=O)N[C@H](C(=O)N(C)[C@H](/C=C(\C)C(=O)NS(=O)(=O)c1cccc(C#N)c1)C(C)C)C(C)(C)C)C(C)(C)c1ccccc1 [Compound 18, (S,E)-N-(3-cyanophenylsulfonyl)-2,5-dimethyl-4-((S)—N,3,3-trimethyl-2-((S)-3-methyl-2-(methylamino)-3-phenylbutanamido)butanamido)hex-2-enamide] | 1.36
4 | CN[C@H](C(=O)N[C@H](C(=O)N(C)[C@H](/C=C(\C)C(=O)NS(=O)(=O)c1cccc(N)c1)C(C)C)C(C)(C)C)C(C)(C)c1ccccc1 [Compound 48, (S,E)-N-(3-aminophenylsulfonyl)-2,5-dimethyl-4-((S)—N,3,3-trimethyl-2-((S)-3-methyl-2-(methylamino)-3-phenylbutanamido)butanamido)hex-2-enamide] | 0.208
5 | CN[C@H](C(=O)N[C@H](C(=O)N(C)[C@H](/C=C(\C)C(=O)NS(=O)(=O)c1c(C(C)C)cc(C(C)C)cc1C(C)C)C(C)C)C(C)(C)C)C(C)(C)c1ccccc1 [Compound 15, (S,E)-2,5-dimethyl-N-(2,4,6-triisopropylphenylsulfonyl)-4-((S)—N,3,3-trimethyl-2-((S)-3-methyl-2-(methylamino)-3-phenylbutanamido)butanamido)hex-2-enamide] | 7.6
6 | CN[C@H](C(=O)N[C@H](C(=O)N(C)[C@H](/C=C(\C)C(=O)NS(=O)(=O)c1ccc2ccccc2c1)C(C)C)C(C)(C)C)C(C)(C)c1ccccc1 [Compound 30, (S,E)-2,5-dimethyl-N-(naphthalen-2-ylsulfonyl)-4-((S)—N,3,3-trimethyl-2-((S)-3-methyl-2-(methylamino)-3-phenylbutanamido)butanamido)hex-2-enamide] | 0.109
7 | CN[C@H](C(=O)N[C@H](C(=O)N(C)[C@H](/C=C(\C)C(=O)NS(=O)(=O)c1ccccc1NC(=O)C(F)(F)F)C(C)C)C(C)(C)C)C(C)(C)c1ccccc1 [Compound 97, (S,E)-2,5-dimethyl-N-(2-(2,2,2-trifluoroacetamido)phenylsulfonyl)-4-((S)—N,3,3-trimethyl-2-((S)-3-methyl-2-(methylamino)-3-phenylbutanamido)butanamido)hex-2-enamide] | 1.62
8 | CN[C@H](C(=O)N[C@H](C(=O)N(C)[C@H](/C=C(\C)C(=O)NS(=O)(=O)c1ccc(O)cc1)C(C)C)C(C)(C)C)C(C)(C)c1ccccc1 [Compound 51, (S,E)-N-(4-hydroxyphenylsulfonyl)-2,5-dimethyl-4-((S)—N,3,3-trimethyl-2-((S)-3-methyl-2-(methylamino)-3-phenylbutanamido)butanamido)hex-2-enamide] | 0.247
9 | CN[C@H](C(=O)N[C@H](C(=O)N(C)[C@H](/C=C(\C)C(=O)NS(=O)(=O)c1cccc(NC(=O)C(F)(F)F)c1)C(C)C)C(C)(C)C)C(C)(C)c1ccccc1 [Compound 47, (S,E)-2,5-dimethyl-N-(3-(2,2,2-trifluoroacetamido)phenylsulfonyl)-4-((S)—N,3,3-trimethyl-2-((S)-3-methyl-2-(methylamino)-3-phenylbutanamido)butanamido)hex-2-enamide] | 0.261
10 | CN[C@H](C(=O)N[C@H](C(=O)N(C)[C@H](/C=C(\C)C(=O)NS(=O)(=O)c1ccc(C(C)(C)C)cc1)C(C)C)C(C)(C)C)C(C)(C)c1ccccc1 [Compound 16, (S,E)-N-(4-tert-butylphenylsulfonyl)-2,5-dimethyl-4-((S)—N,3,3-trimethyl-2-((S)-3-methyl-2-(methylamino)-3-phenylbutanamido)butanamido)hex-2-enamide] | 0.041

Same assay, conditions: Homo sapiens, Jurkat, Table 6; Compound Cytotoxicity on Jurkat; read-out: EC50

Row | SMILES | EC50 [nM]
11 | CN[C@H](C(=O)N[C@H](C(=O)N(C)[C@H](/C=C(\C)C(=O)NS(=O)(=O)Cc1ccc(Cl)cc1)C(C)C)C(C)(C)C)C(C)(C)c1ccccc1 [Compound 66, (S,E)-N-(4-chlorobenzylsulfonyl)-2,5-dimethyl-4-((S)—N,3,3-trimethyl-2-((S)-3-methyl-2-(methylamino)-3-phenylbutanamido)butanamido)hex-2-enamide] | 0.145
12 | CN[C@H](C(=O)N[C@H](C(=O)N(C)[C@H](/C=C(\C)C(=O)NS(=O)(=O)Cc1cccnc1)C(C)C)C(C)(C)C)C(C)(C)c1ccccc1 [Compound 45, (S,E)-2,5-dimethyl-N-(pyridin-3-ylmethylsulfonyl)-4-((S)—N,3,3-trimethyl-2-((S)-3-methyl-2-(methylamino)-3-phenylbutanamido)butanamido)hex-2-enamide] | 0.373
13 | CN[C@H](C(=O)N[C@H](C(=O)N(C)[C@H](/C=C(\C)C(=O)NS(=O)(=O)Cc1cccc(OC(F)(F)F)c1)C(C)C)C(C)(C)C)C(C)(C)c1ccccc1 [Compound 103, (S,E)-2,5-dimethyl-N-(3-(trifluoromethoxy)benzylsulfonyl)-4-((S)—N,3,3-trimethyl-2-((S)-3-methyl-2-(methylamino)-3-phenylbutanamido)butanamido)hex-2-enamide] | 0.209
14 | CN[C@H](C(=O)N[C@H](C(=O)N(C)[C@H](/C=C(\C)C(=O)NS(=O)(=O)Cc1ccc(C(C)(C)C)cc1)C(C)C)C(C)(C)C)C(C)(C)c1ccccc1 [Compound 71, (S,E)-N-(4-tert-butylbenzylsulfonyl)-2,5-dimethyl-4-((S)—N,3,3-trimethyl-2-((S)-3-methyl-2-(methylamino)-3-phenylbutanamido)butanamido)hex-2-enamide] | 1.02
15 | CN[C@H](C(=O)N[C@H](C(=O)N(C)[C@H](/C=C(\C)C(=O)NS(=O)(=O)Cc1cccc(C(F)(F)F)c1)C(C)C)C(C)(C)C)C(C)(C)c1ccccc1 [Compound 102, (S,E)-2,5-dimethyl-N-(3-(trifluoromethyl)benzylsulfonyl)-4-((S)—N,3,3-trimethyl-2-((S)-3-methyl-2-(methylamino)-3-phenylbutanamido)butanamido)hex-2-enamide] | 0.289
16 | CN[C@H](C(=O)N[C@H](C(=O)N(C)[C@H](/C=C(\C)C(=O)NS(=O)(=O)c1ccccc1N)C(C)C)C(C)(C)C)C(C)(C)c1ccccc1 [Compound 98, (S,E)-N-(2-aminophenylsulfonyl)-2,5-dimethyl-4-((S)—N,3,3-trimethyl-2-((S)-3-methyl-2-(methylamino)-3-phenylbutanamido)butanamido)hex-2-enamide] | 0.077
17 | CN[C@H](C(=O)N[C@H](C(=O)N(C)[C@H](/C=C(\C)C(=O)NS(=O)(=O)c1ccc(N)c(F)c1)C(C)C)C(C)(C)C)C(C)(C)c1ccccc1 [Compound 112, (S,E)-N-(4-amino-3-fluorophenylsulfonyl)-2,5-dimethyl-4-((S)—N,3,3-trimethyl-2-((S)-3-methyl-2-(methylamino)-3-phenylbutanamido)butanamido)hex-2-enamide] | 0.064
18 | CN[C@H](C(=O)N[C@H](C(=O)N(C)[C@H](/C=C(\C)C(=O)NS(=O)(=O)c1ccccc1NC(=O)C(F)(F)F)C(C)C)C(C)(C)C)C(C)(C)c1ccccc1 [Compound 97, (S,E)-2,5-dimethyl-N-(2-(2,2,2-trifluoroacetamido)phenylsulfonyl)-4-((S)—N,3,3-trimethyl-2-((S)-3-methyl-2-(methylamino)-3-phenylbutanamido)butanamido)hex-2-enamide] | 0.307
19 | CN[C@H](C(=O)N[C@H](C(=O)N(C)[C@H](/C=C(\C)C(=O)NS(=O)(=O)CCc1ccccc1)C(C)C)C(C)(C)C)C(C)(C)c1ccccc1 [Compound 67, (S,E)-2,5-dimethyl-N-(phenethylsulfonyl)-4-((S)—N,3,3-trimethyl-2-((S)-3-methyl-2-(methylamino)-3-phenylbutanamido)butanamido)hex-2-enamide] | 0.562
20 | CN[C@H](C(=O)N[C@H](C(=O)N(C)[C@H](/C=C(\C)C(=O)NS(=O)(=O)Cc1ccc(C#N)cc1)C(C)C)C(C)(C)C)C(C)(C)c1ccccc1 [Compound 69, (S,E)-N-(4-cyanobenzylsulfonyl)-2,5-dimethyl-4-((S)—N,3,3-trimethyl-2-((S)-3-methyl-2-(methylamino)-3-phenylbutanamido)butanamido)hex-2-enamide] | 1.56

Same assay, conditions: Homo sapiens, Jurkat, Table 7; Cytotoxicity on Jurkat; read-out: EC50

Row | SMILES | EC50 [nM]
21 | CN[C@H](C(=O)N[C@H](C(=O)N(C)[C@H](/C=C(\C)C(=O)NS(=O)(=O)c1ccc(N)c(F)c1)C(C)C)C(C)(C)C)C(C)(C)c1ccccc1 [Compound 112, (S,E)-N-(4-amino-3-fluorophenylsulfonyl)-2,5-dimethyl-4-((S)—N,3,3-trimethyl-2-((S)-3-methyl-2-(methylamino)-3-phenylbutanamido)butanamido)hex-2-enamide] | 0.064
